Assay results as given in US20120046362A1, “ANTIVIRAL AGENT AND CLEANSING AGENT” (priority 2009, published 2012).
Read-outs that look alike come from different tables or passages of the source.

Legend:
[1] = system: Influenza virus A/whistling swan/Shimane/499/83 (H5N3); assay type: cell-based, avian influenza virus; conditions: for effect on the avian influenza virus (ability to inactivate): Example 10, each potassium soap diluted to 0.035 M; for infection dose of the avian influenza virus reduced to / ability to inactivate: Example 9, diluted to 0.0035 mol/L with purified water; for ability to inactivate the avian influenza virus, potassium versus sodium oleate soap: Example 4, 0.35 M oleate soap tested as in Example 2
feline calicivirus = assay: Inactivation ability against infectivity of feline calicivirus (TCID50 on CRFK cells); assay type: cell-based; conditions: for inactivation ability against the feline calicivirus, potassium versus sodium oleate soap: Example 4, 0.35 M oleate soap
[2] = Example 9, diluted to 0.0035 mol/L with purified water
[3] = Example 8, sample No. 19 versus surface-active agents other than soap (Table 4, 10.32 %)

**Q.** How did the “effect on the avian influenza virus (ability to inactivate)” value [1] turn out when `CCCCC/C=C\C/C=C\CCCCCCCC(=O)[O-].[K+]` [C18:2 (linoleate) soap] was run?
**A.** excellent

**Q.** Which “effect on the avian influenza virus (ability to inactivate)” value [1] does the source give for `CCC=CCC=CCC=CCCCCCCCC(=O)[O-].[K+]` [C18:3 (linolenate) soap] here?
**A.** weak

**Q.** How did the “infection dose of the feline calicivirus reduced to / ability to inactivate” value (feline calicivirus) turn out when `CCCCCCCC/C=C\CCCCCCCC(=O)N(C)CC(=O)O` [oleoyl sarcosine] was run?
**A.** could not be reduced

**Q.** What about the “infection dose of the avian influenza virus reduced to / ability to inactivate” value [1] of the same molecule?
**A.** about one-thousandth

**Q.** What does the source list for `CCCCCCCC/C=C\CCCCCCCC(=O)[O-].[K+]` [potassium oleate soap, potassium oleate]?
**A.** inactivation ability against the feline calicivirus, potassium versus sodium oleate soap (feline calicivirus): no difference; infection dose of the feline calicivirus reduced to / ability to inactivate (feline calicivirus; [2]): excellent antiviral activity; ability to inactivate the avian influenza virus, potassium versus sodium oleate soap [1]: no difference; infection dose of the avian influenza virus reduced to / ability to inactivate [1]: excellent antiviral activity; effect on the avian influenza virus (ability to inactivate) [1]: excellent

**Q.** What does the source list for `CCCCCCCC/C=C\CCCCCCCC(=O)[O-].[Na+]` [sodium oleate soap, sodium oleate]?
**A.** inactivation ability against the feline calicivirus, potassium versus sodium oleate soap (feline calicivirus): no difference; ability to inactivate the avian influenza virus, potassium versus sodium oleate soap [1]: no difference

**Q.** For `CCCCCCCC/C=C\CCCCCCCCOS(=O)(=O)[O-].[Na+]` [sodium oleyl sulfate], which “infection dose of the feline calicivirus reduced to / ability to inactivate” value (feline calicivirus) is on record?
**A.** one-tenth or less

**Q.** And the “infection dose of the avian influenza virus reduced to / ability to inactivate” value [1]?
**A.** one-tenth or less

**Q.** With Polyoxyethylene sorbitan monooleate as the molecule, how does the “infection dose of the feline calicivirus reduced to / ability to inactivate” value (feline calicivirus; [2]) read?
**A.** no ability to inactivate

**Q.** And the “infection dose of the avian influenza virus reduced to / ability to inactivate” value [1]?
**A.** no ability to inactivate

**Q.** With “Sodium polyoxyethylene alkyl ether sulfate [compound 37]” as the molecule, how does the cytotoxicity (MDCK (+) cells) read?
**A.** high cytotoxicity

**Q.** And the “virus inactivation ability / antiviral activity (feline calicivirus)” value (feline calicivirus; [3])?
**A.** low antiviral activity

**Q.** And the cytotoxicity (CRFK cells)?
**A.** high cytotoxicity

**Q.** And the “virus inactivation ability / antiviral activity (avian influenza virus)” value [1, 3]?
**A.** low antiviral activity
